Values joined by “and” are separate entries in the source; they are usually repeats but may differ in a detail not shown here. Identical values can stand only once.
Tests used:
Format in all cases: cell-based
[1] = system: Aspergillus niger (A. niger, KCTC 6196); test: Disc diffusion method, clear zone, A. niger; settings: KCTC6196, Table 19 Antibiotic: ketoconazole (200 μg/mL), read-out: Clear zone (ø, mm) A. niger
Experimental: (§1) As the strains used for antibacterial activity experiments, Gram-positive bacteria Staphylococcus aureus (S. aureus, KCTC 1916), Gram-negative Escherichia coli (E. coli, KCTC 2571), Pseudomonas aeruginosa (P. aeruginosa, KCTC 2513), Candida albicans (C. albicans, KCTC 7965), and Aspergillus niger (A. niger, KCTC 6196), which were purchased from the Korean collection for Type Cultures (KCTC), were stored and used (Table 5). The inhibitory zones of the extracts were measured by a test method of antibacterial activity to determine the presence or absence of antibacterial activity and to compare the degree of effectiveness of the extracts against the proliferation of bacteria. The antibacterial activity was measured by the disc diffusion method using a paper disc (size: 8 mm, Advantec, Toyo Roshi Kaisha, Ltd., Tokyo, Japan). The strains were each inoculated in an amount of one platinum loop, diluted in 4 mL of sterile water, mixed with a sterilized medium, and the mixture was poured into a prepared plate to be hardened. A 3% extract each was filtered (pore size: 0.4 μm, Advantec MFS, Inc., Tokyo, Japan), and 40 μL was taken and allowed to be absorbed onto a paper disc. After culturing for 24 hours at an appropriate temperature for each strain, the size of the transparent ring formed around the paper disc was measured. [table]

[2] = system: Candida albicans (C. albicans, KCTC 7965); test: Disc diffusion method, clear zone, C. albicans; settings: Table 19 Antibiotic: ketoconazole (200 μg/mL)
Experimental: as §1

[3] = system: Escherichia coli (E. coli, KCTC 2571); test: Disc diffusion method, clear zone, E. coli
Experimental: as §1

[4] = system: Staphylococcus aureus (S. aureus, KCTC 1916); test: Disc diffusion method, clear zone, S. aureus
Experimental: as §1

[5] = system: Pseudomonas aeruginosa (P. aeruginosa, KCTC 2513); test: Disc diffusion method, clear zone, P. aeruginosa; settings: KCTC2513, Control Group Antibiotic: tetracycline (50 μg/mL), read-out: Clear Zone (ø, mm) P. aeruginosa
Experimental: as §1

Structure (SMILES): CC(=O)N1CCN(c2ccc(OCC3COC(Cn4ccnc4)(c4ccc(Cl)cc4Cl)O3)cc2)CC1 (centres unmarked) [ketoconazole]
- zone of inhibition at 200 µg/mL [1]: 13.2 mm
- Clear zone (ø, mm) C. albicans [2]: no antibacterial activity

Structure (SMILES): CN(C)[C@@H]1C(O)=C(C(N)=O)C(=O)[C@@]2(O)C(O)=C3C(=O)c4c(O)cccc4[C@@](C)(O)[C@H]3C[C@@H]12 [tetracycline]
- Clear Zone (ø, mm) E. coli ([3]; Control Group Antibiotic: tetracycline (50 μg/mL)): 19.6 mm and 18.2 mm and 18.5 mm and 20.7 mm and 15.7 mm and 17.8 mm and 14.2 mm
- zone of inhibition at 50 µg/mL ([3]; Escherichia coli, KCTC2571, Control Group Antibiotic: tetracycline (50 μg/mL), read-out: Clear Zone (ø, mm) E. coli): 25.6 mm
- zone of inhibition at 100 µg/mL ([3]; Escherichia coli, KCTC2571, Table 19 Antibiotic: tetracycline (100 μg/mL), read-out: Clear zone (ø, mm) E. coli): 14.2 mm
- zone of inhibition at 50 µg/mL ([4]; KCTC1916, Control Group Antibiotic: tetracycline (50 μg/mL), read-out: Clear Zone (ø, mm) S. aureus): 22.8 mm
- zone of inhibition at 100 µg/mL ([4]; KCTC1916, Table 19 Antibiotic: tetracycline (100 μg/mL), read-out: Clear zone (ø, mm) S. aureus): 18.2 mm
- zone of inhibition at 50 µg/mL [5]: 9 mm
